The values that follow come from patent US9138466B2, “Factor H for transplantation” (Baxter International Inc., priority 2013, dated 2015).

Molecules are shown by their SMILES. Several values for one entry are separate records, joined by “and”; a condition that tells them apart may be missing. Equal values may be shown once.

The test system of this assay is C3H kidney allografts in pre-sensitized B6 recipients. The experiment in a line: Pre-sensitized mouse kidney allograft model, RAPA / CFH / FK506, graft survival (Example 2). Format: in vivo. The source says:
Male C3H (H-2k) and C57BL/6 (B6, H-2b) mice (25-30 g) were used to determine the efficacy of Rapamycin (RAPA) in combination with Factor H (FH) during transplant rejection. C3H mice served as skin graft and kidney donors for pre-sensitization and kidney transplantation. Male C57BL/c (B6) mice were used as recipients. The B6 recipients were pre-sensitized by transplantation of the donor skin grafts, and were subsequently transplanted with kidney allografts between 15 and 20 days after the skin transplantation. […]
Mice were monitored daily for signs of rejection and were euthanized at the end point of the experiment, which was defined as when transplants developed functional deterioration due to severe rejection or on POD60 and POD100. Renal graft function was monitored by plasma creatinine (Cr) blood urea nitrogen (BUN) and hematocrit (Hct) levels by an I-Stat potable analyzer (Abaxis). Circulating donor specific antibodies (DSAs) were determined prior to kidney transplantation and at the endpoint of study by flow cytometry.

In the case of `CO[C@H]1C[C@@H]2CC[C@@H](C)[C@@](O)(O2)C(=O)C(=O)N2CCCC[C@H]2C(=O)O[C@H]([C@H](C)C[C@@H]2CC[C@@H](O)[C@H](OC)C2)CC(=O)[C@H](C)/C=C(\C)[C@@H](O)[C@@H](OC)C(=O)[C@H](C)C[C@H](C)/C=C/C=C/C=C/1C` [RAPA Alone, Rapamycin], where the note is “individual grafts, pre-sensitized kidney transplant model”, the “Survival” value is 8 days (2×) and 37 days and 10 days and 11 days and 12 days and 22 days and 14 days and 16 days and 20 days. Besides, the “MST (mean survival time)” value (per cohort, untreated controls 8 days) was 14 days.
